Data from patent US7067277B1, “Chimeric G proteins and uses thereof” (H. Lundbeck A/S, priority 1999, dated 2006).

Target: T1, Human NPFF1 (Homo sapiens, UniProt Q9GZQ6)
T1 construct: linearized plasmids or PCR products containing the complete coding region of the genes; expressed in transfected cells; host or cells: Xenopus laevis oocytes (receptor cRNA injected)
Assay: Cl- current recording in Xenopus oocytes expressing GPCR and chimeric G protein
Type: cell-based
Settings: oocytes injected with 50 nl of 10 mM EGTA
Protocol: Oocytes were harvested from Xenopus laevis and injected with mRNA transcripts as previously described (Quick and Lester, 1994; Smith et al., 1997). Receptor and chimeric G protein α subunit RNA transcripts were synthesized using the T7 polymerase (“Message Machine,” Ambion) from linearized plasmids or PCR products containing the complete coding region of the genes. Oocytes were injected with 5–25 ng synthetic receptor RNA and incubated for 3–8 days at 17 degrees. Three to eight hours prior to recording, oocytes were injected with 500 pg chimeric Gα subunit mRNA. Dual electrode voltage clamp (Axon Instruments Inc.) was performed using 3 M KCl-filled glass microelectrodes having resistances of 1–2 MOhm. Unless otherwise specified, oocytes were voltage clamped at a holding potential of −80 mV. During recordings, oocytes were bathed in continuously flowing (1–3 ml/min) medium containing 96 mM NaCl, 2 mM KCl, 1.8 mM CaCl2, 1 mM MgCl2, and 5 mM HEPES, pH 7.5 (ND96). Drugs were applied by local perfusion from a 10 μl glass capillary tube fixed at a distance of 0.5 mm from the oocyte. Experiments were carried out at room temperature. All values are expressed as mean±standard error of the mean.

T1 sequence (Q9GZQ6 whole entry): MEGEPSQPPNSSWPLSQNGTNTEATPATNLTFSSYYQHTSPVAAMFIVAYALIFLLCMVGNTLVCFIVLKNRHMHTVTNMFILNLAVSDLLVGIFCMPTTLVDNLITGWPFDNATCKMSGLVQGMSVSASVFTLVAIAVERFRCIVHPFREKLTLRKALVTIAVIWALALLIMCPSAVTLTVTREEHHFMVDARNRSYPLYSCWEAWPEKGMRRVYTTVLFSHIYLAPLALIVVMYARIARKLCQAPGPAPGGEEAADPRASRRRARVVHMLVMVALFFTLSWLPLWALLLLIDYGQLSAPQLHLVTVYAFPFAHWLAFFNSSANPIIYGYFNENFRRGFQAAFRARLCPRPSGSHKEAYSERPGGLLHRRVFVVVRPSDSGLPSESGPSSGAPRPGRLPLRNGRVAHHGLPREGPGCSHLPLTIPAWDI

currents stimulated by NPFF in oocytes expressing NPFF1 and cGαq/z5: blocked
Compound: O=C(O)CN(CCOCCOCCN(CC(=O)O)CC(=O)O)CC(=O)O [EGTA, reference compound]
